Laboratory results as given in the OPERA property sets (Mansouri et al. 2018).
Where a SMILES comes first, the peptide text is derived from it.

SMILES: CC(C)CC(N)C(=O)NC(C)C(=O)NC(CC(C)C)C(=O)O (stereo not drawn) (H-Leu-Ala-Leu-OH; configuration not given here)
- logP: -2.03

SMILES: CCC(C)C(N)C(=O)NC(C(=O)NC(C(=O)NC(C(=O)NC(C(=O)O)C(C)CC)C(C)C)C(C)C)C(C)C (configuration not stated) (H-IVVVI-OH; configuration not given here)
- logP: -0.89

SMILES: NC(=O)c1cc(OCCNCC(O)CON=C(C2CC2)C2CC2)ccc1O (configuration not stated)
- logP: 1.69

SMILES: Nc1ccc(CNC(=O)C2CCCN2C(=O)C(Cc2ccc(Cl)c(Cl)c2)NS(=O)(=O)Cc2ccccc2)cn1 (configuration not stated)
- logP: 3.68

SMILES: O=C1C(NCCO)=C(N2CC2)C(=O)C(NCCO)=C1N1CC1
- logP: -1.47

SMILES: Nc1nnnn1-c1cccc([N+](=O)[O-])c1
- logP: 0.67

SMILES: Clc1cc(Cl)c(-c2cc(Cl)cc(Cl)c2Cl)c(Cl)c1
- logP: 6.87

SMILES: CC1(C)C2CCC(CO)C1C2 (configuration not stated)
- logP: 3.41

SMILES: CC(C)CC(NC(=O)C(CC(C)C)NC(=O)C1CCCN1)C(=O)O (stereo not drawn) (H-Pro-Leu-Leu-OH; configuration not given here)
- logP: -1.64

SMILES: CCCN(CCC)C1CCc2ccc(O)cc2C1 (configuration not stated)
- logP: 3.75

SMILES: NC1=NCC(CN2CC=CCC2)O1 (configuration not stated)
- logP: 0.19

SMILES: CN(C1=NC(=O)N(c2ccc(Cl)cc2)C1)C1CCCCC1
- logP: 2.7

SMILES: CC(C)CC(NC(=O)C(CC(C)C)NC(=O)C(NC(=O)C(C)N)C(C)C)C(=O)O (configuration not stated) (H-AVLL-OH; configuration not given here)
- logP: -1.74

SMILES: O=S(NC(=S)N1CCCCC1)c1cnccc1NC1CCCCC1 (configuration not stated)
- logP: 3.75

SMILES: Nc1nnc(-c2cccc(Cl)c2Cl)c(N)n1
- logP: 2.57

SMILES: Nc1nnnn1-c1cc(Cl)ccc1Cl
- logP: 1.61

SMILES: CCCCOc1ccccc1NC(=O)OCCN1CCCCC1
- logP: 4.79

SMILES: CC(=O)OCc1ccccn1
- logP: 0.39

SMILES: ClCC1(C(Cl)Cl)C2CC(Cl)(Cl)C1(C(Cl)Cl)C(Cl)C2(Cl)Cl (configuration not stated)
- logP: 6.64

SMILES: NC(=O)C(Cc1c[nH]c2ccccc12)NC(=O)C(N)Cc1ccccc1 (stereo not drawn) (H-Phe-Trp-NH2; configuration not given here)
- logP: 1.38

SMILES: CCCc1nc(N(C)C)nc(N2CCOCC2)n1
- logP: 1.64

SMILES: CCNC(=NC#N)NS(=O)(=O)c1cnccc1NC1CCCCC1
- logP: 0.94

SMILES: CC(=O)OCCCOC(=O)C(C)c1cccc(C(=O)c2ccccc2)c1 (configuration not stated)
- logP: 3.6

SMILES: CN1CCN(Cc2cnccc2Cl)C1=N[N+](=O)[O-]
- logP: 0.26

SMILES: Cc1cc2cc3ccc(=O)oc3c(C)c2o1
- logP: 2.93

SMILES: COc1ccc(C2Cc3c(ccc(Br)c3OC)N(CCN(C)C)C(=O)C2C)cc1 (configuration not stated)
- logP: 5.4

SMILES: S=C=NC(c1ccccc1)c1ccccc1
- logP: 5.09

SMILES: COc1cc2c(cc1OC)C(C=Cc1ccccc1)=NCC2
- logP: 3.39

SMILES: CC(=O)Nc1ccc(S(=O)(=O)Nc2cc(C)nc(C)n2)cc1
- logP: -0.14

SMILES: NC(=O)c1c(O)cccc1O
- logP: 0.6

SMILES: COC(=O)Sc1ncc(C=C(C(=O)OC)C(=O)OC)n1C
- logP: 0.49

SMILES: CC(SSc1ncc[nH]1)c1ccccc1 (configuration not stated)
- logP: 3.39

SMILES: CCNC(=O)Cn1cccc(O)c1=O
- logP: -0.74

SMILES: CC(CO)CNc1[nH]cnc2ncnc1-2 (configuration not stated)
- logP: 0.61

SMILES: COc1cc(OC)c(C=[N+]([O-])C(C)(C)C)c(OC)c1
- logP: 1.2

SMILES: CCO[PH](=O)O
- logP: -2.7

SMILES: CO[C@H]1C=CO[C@@]2(C)Oc3c(C)c(O)c4c(c3C2=O)C2=NC3(CCN(CC(C)C)CC3)NC2=C(NC(=O)C(C)=CC=C[C@H](C)[C@H](O)[C@@H](C)[C@@H](O)[C@@H](C)[C@H](OC(C)=O)[C@@H]1C)C4=O
- logP: 4.5

SMILES: COc1ccc(C2Cc3cc(Sc4ccccc4)ccc3N(CCN(C)C)C(=O)C2OC(C)=O)cc1 (configuration not stated)
- logP: 5.8

SMILES: CCNC(=S)NN=C(c1cccc([N+](=O)[O-])c1)c1ccccn1
- logP: 2.53

SMILES: CN1COCc2c1ccc1cc3ccc4c(c3nc21)COC(=O)N4
- logP: 1.7

SMILES: CC(C)Nc1ncnc2c1ncn2C1OC(CO)C(O)C1O (configuration not stated)
- logP: 0.48

SMILES: O=c1ssc(-c2ccccc2)c1-c1ccccc1
- logP: 4.07

SMILES: CC=C(C)C(=O)OC1CC(C)CCC1C(C)C (configuration not stated)
- logP: 6.2

SMILES: O=c1cc(-c2ccccc2Cl)oc2ccccc12
- logP: 3.61

SMILES: O=C1c2ccc(O)cc2OCN1CCO[N+](=O)[O-]
- logP: 1.63

SMILES: C[N+](C)([O-])CCC(c1ccccc1)c1ccccc1
- logP: 1.1

SMILES: c1ccc2c(c1)OCCOCCOc1ccccc1OCCO2
- logP: 2.21

SMILES: CCCC(=O)NCCCCCN(O)C(=O)CCC(=O)NCCCCCN(O)C(=O)CCC(=O)NCCCCCN(O)C(C)=O
- logP: 0.42

SMILES: CCOc1cccc(COC(=O)C2C(C=C(C)C(=O)OC)C2(C)C)c1 (configuration not stated)
- logP: 4.78

SMILES: CC(=O)NC(CCCN(Cc1ccccc1)C(=O)N(CCCl)N=O)C(=O)NCc1ccccc1 (configuration not stated)
- logP: 1.92

SMILES: ClCC1(CCl)C2C(Cl)C(Cl)C1(CCl)C(Cl)(Cl)C2Cl (configuration not stated)
- logP: 5.74

SMILES: Cc1ccccc1N1CCN(CC2CN=C(N)O2)CC1 (configuration not stated)
- logP: 1.78

SMILES: O=[N+]([O-])c1ccc(CCBr)cc1
- logP: 2.9

SMILES: [O-][n+]1ccc(-c2ccccc2)cc1
- logP: 0.93

SMILES: COc1cc2c(c(OC)c1OC)-c1ccc(SC)c(=S)cc1C(NC(C)=O)CC2 (configuration not stated)
- logP: 1.75

SMILES: O=S(CCl)c1ccccc1 (configuration not stated)
- logP: 1.47

SMILES: CCCN(CCCC(NC(C)=O)C(=O)NCc1ccccc1)C(=O)N(CCCl)N=O (configuration not stated)
- logP: 1.57

SMILES: CCNCc1ccc(C)cc1
- logP: 2.38

SMILES: CCCSc1cccc2nc(N)nc(N)c12
- logP: 2.85

SMILES: C=C(C)CC(C)(CCC=C(C)C)OC(C)=O (configuration not stated)
- logP: 4.36

SMILES: O=C(NO)C(Cc1ccccc1)C(=O)NCc1ccc(F)cc1 (configuration not stated)
- logP: 1.8

SMILES: CC(C)CC(NC(=O)CN)C(=O)NC(CC(C)C)C(=O)NCC(=O)NC(Cc1ccccc1)C(=O)O (configuration not stated) (H-GLLGF-OH; configuration not given here)
- logP: -0.18

SMILES: C#CCOc1noc2c1CNCC2
- logP: 0.4

SMILES: CCC(C)C(NC(=O)C(NC(=O)C(N)CC(C)C)C(C)CC)C(=O)O (stereo not drawn) (H-Leu-Ile-Ile-OH; configuration not given here)
- logP: -1.11

SMILES: CCCCCCCCCCCCCCNCCO
- logP: 5.74

SMILES: C#CC(C)(C)NCC(O)CON=C(C1CC1)C1CC1 (configuration not stated)
- logP: 1.6

SMILES: C[C@]12CC[C@@H](O)C[C@@H]1CC[C@@H]1[C@@H]2CC[C@]2(C)[C@@H](O)CC[C@@H]12
- logP: 4.16

SMILES: CC(C)C[C@H](NC(=O)[C@@H](NC(=O)[C@@H](N)CC(C)C)C(C)C)C(=O)O (H-Leu-Val-Leu-OH)
- logP: -1.57

SMILES: O=C(Nc1ncnc2nc[nH]c12)c1ccccc1
- logP: 1.12

SMILES: CCCC(=O)OCC1OC(n2cc(I)c(=O)[nH]c2=O)CC1O (configuration not stated)
- logP: 0.88

SMILES: Cc1c(O)c(=O)ccn1CCCOC(=O)c1ccccn1
- logP: -0.18

SMILES: NC(Cc1ccc(O)cc1)C(=O)NCC(=O)NC(Cc1ccccc1)C(=O)O (stereo not drawn) (H-Tyr-Gly-Phe-OH; configuration not given here)
- logP: -1.86

SMILES: CCNC1CCc2c(OC)cccc2C1C (configuration not stated)
- logP: 2.67

SMILES: CCCCOCCCCCNC(=O)NC12CC3CC(CC(C3)C1)C2
- logP: 5

SMILES: OCC1OC(n2cnc3c(NCCCc4ccccc4)ncnc32)C(O)C1O (configuration not stated)
- logP: 1.92

SMILES: COC(=O)C=CCn1cnc([N+](=O)[O-])n1
- logP: 0.09

SMILES: COc1cnc(C2=NC(C)(C(C)C)C(=O)N2)c(C(=O)O)c1 (configuration not stated)
- logP: 0.61

SMILES: C[C@@H]1C[C@H]2[C@@H]3CCC4=CC(=O)C=C[C@]4(C)[C@@]3(Cl)[C@@H](O)C[C@]2(C)[C@@]1(OC(=O)c1ccco1)C(=O)CCl
- logP: 3.9

SMILES: CC1CC(N)CN1c1cc2c(cc1F)c(=O)c(C(=O)O)cn2-c1ccc(F)cc1F (configuration not stated)
- logP: 0.09

SMILES: Cc1c(O)c(=O)ccn1CCCOC(=O)c1ccccc1O
- logP: 1.4

SMILES: CN1CCN(CCCOn2nnc3ccccc32)CC1
- logP: 1.3

SMILES: Nc1ccc(S(=O)(=O)Nc2cc(Br)cc3[nH]ccc23)cc1
- logP: 2.77

SMILES: CCOC(=O)C1=C(C)NC(C)=C(C(=O)OC)C1c1ccc(OC)c(OC)c1 (configuration not stated)
- logP: 3.6

SMILES: CC(N)C(=O)N1CCCC1C(=O)O (configuration not stated)
- logP: -2.71

SMILES: COC(=O)C(C)NP(=O)(OCC1C=CC(n2cc(C)c(=O)[nH]c2=O)O1)Oc1ccccc1 (configuration not stated)
- logP: 1.04

SMILES: COc1ccc2cc(C(C)C(=O)OCCCCOC(C)=O)ccc2c1 (configuration not stated)
- logP: 3.3

SMILES: O=C(O)C(Cc1ccccc1)NC(=O)C1CCCN1 (stereo not drawn) (H-Pro-Phe-OH; configuration not given here)
- logP: -2.07

SMILES: CNc1ncnc2c1ncn2C1OC(CO)C(O)C1O (configuration not stated)
- logP: -0.52

SMILES: Cc1coc2c(C)c3oc(=O)cc(C)c3cc12
- logP: 3.25

SMILES: Nc1nc(N)nc(-c2ccc(SC(F)(F)F)cc2)n1
- logP: 3.2

SMILES: CC(=O)N(O)CCCCCNC(=O)CCC(=O)N(O)CCCCCNC(=O)CCC(=O)N(O)CCCCCNS(C)(=O)=O
- logP: -0.36

SMILES: CCCCCCCCOC(=O)c1cccnc1
- logP: 4.71

SMILES: NC(Cc1ccccc1)C(=O)NC(Cc1ccccc1)C(=O)NC(Cc1ccccc1)C(=O)NC(Cc1ccccc1)C(=O)O (configuration not stated) (H-FFFF-OH; configuration not given here)
- logP: 1.63

SMILES: CC(C)CC(NC(=O)C(CC(C)C)NC(=O)CNC(=O)C(N)Cc1c[nH]c2ccccc12)C(=O)O (configuration not stated) (H-WGLL-OH; configuration not given here)
- logP: 0.06

SMILES: CNC(Cc1ccccc1)C(=O)N1CCCC1C(=O)NCC1CCC(N)CC1 (configuration not stated)
- logP: 1.12

SMILES: CCC(C)NC(=O)N1C(=O)N(C)CC1O (configuration not stated)
- logP: 1.28

SMILES: Clc1ccccc1N1CCN(CCCOn2nnc3ccccc32)CC1
- logP: 4.1

SMILES: CN(C)C(C)(C)O
- logP: 0.2

SMILES: CCNc1nc(O)nc(NCC)n1
- logP: 2.29

SMILES: Nc1nnnn1-c1ccc(Cl)c(Cl)c1
- logP: 2.06

SMILES: CCOc1ccccc1NC(=O)OC1C(CN(CC)CC)C2CCC1(C)C2(C)C (configuration not stated)
- logP: 5.8

SMILES: C[N+](C)([O-])CCCc1ccccc1
- logP: -0.04

SMILES: CCCCOc1cccc(NC(=O)OCCN2CCCCC2)c1
- logP: 5.04

SMILES: S=C=NCCCCCCCCCCc1ccccc1
- logP: 6.82

SMILES: CC(=O)Nc1ccc(F)cc1F
- logP: 1.5

SMILES: CCN(CCO)CCCOc1cc2ncnc(Nc3cc(CC(=O)Nc4cccc(F)c4)[nH]n3)c2cc1OC
- logP: 3.7

SMILES: CC(C)c1cc(=S)ss1
- logP: 2.75

SMILES: O=c1cc(-c2cccc(Cl)c2)oc2ccc(Cl)cc12
- logP: 4.38

SMILES: CCOC(=O)CC(C(=O)OC)S(=O)(=O)c1ccc([N+](=O)[O-])cc1 (configuration not stated)
- logP: 1.4

SMILES: O=C(NC1CCCCCC1)NS(=O)(=O)c1cnccc1NC1CCCCCC1
- logP: 4.96

SMILES: CC(O)CN(C)C (configuration not stated)
- logP: 0.2

SMILES: OCCCCCNc1[nH]cnc2ncnc1-2
- logP: 0.72

SMILES: CC(C)OP(=O)(OC(C)C)C(Cl)(Cl)P(=O)(OC(C)C)OC(C)C
- logP: 2.89

SMILES: COc1ccc(-c2cn3cccnc3n2)c(OC)c1
- logP: 1.94

SMILES: CN1CC(O)N(C(=O)NC2CCCCC2)C1=O (configuration not stated)
- logP: 1.87

SMILES: CCCCCNc1ncnc2c1ncn2C1OC(CO)C(O)C1O (configuration not stated)
- logP: 1.67

SMILES: Brc1cc(Br)c(N=C2NCCN2)c(Br)c1
- logP: 2.54
